The subject of data set [1] is experimental model of iodinated contrast nephropathy. As to the kind of experiment: Contrast-induced nephropathy: Gastrografin in rats sensitized with subtoxic gentamicin. The method, then:
The rats were placed in individual metabolic cages where they had free access to food and drink. After two days of acclimatization, the 24-hour urine was collected in graduated cylinders. The urine collected was centrifuged during 8 minutes at 2,500 rpm, to clean it from residues not thereof, the clean urine was collected and it was stored at −80° C. for its later analysis.
The blood samples were obtained in capillaries with heparin by a small cut at the end of the tail. Five capillaries were extracted per rat (200 μL), and the capillaries were centrifuged in a microcentrifuge at 11,000 rpm during three minutes. Once centrifuged, the capillaries were broken with the aid of a file, by the cells-plasma limit. The plasma was extracted and stored in eppendorf tubes at −80° C. for its later analysis.
To measure kidney function, the plasma concentrations of creatinine and creatinine clearance, which is a measurement of the glomerular filtration rate, were determined. The creatinine clearance (CrCl) was calculated from the formula CrCl=UF×CrU/CrP, where UF is the urinary flow (ml/min), CrU the creatinine concentration in urine (mg/ml) and CrP the creatinine concentration in plasma (mg/ml). The creatinine concentration in urine and in plasma were measured by a semiautomatic analyser (Reflotron, Roche).
The concentration of urea in plasma was measured by specific reactive strips of a commercial kit, using a semiautomatic analyser (Reflotron, Roche).
The concentration of proteins in urine (proteinuria) was measured by Bradford's colorimetric method (Anal Biochem. 1976; 72:248-54). The urinary excretion of proteins (UEprot) in 24 hours was calculated by the formula: UEprot=Cprot×FU24 h, where Cprot is the concentration of proteins in urine (mg/mL) and FU24 h the urinary flow of 24 hours (mL/day).
For its determination a commercial kit from Roche was used, following the manufacturer's specifications, and the results were analysed with the KC-Junior software.
In the Western Blot technique, 100 μg of protein of the total of the renal tissue homogenate or a volume of urine of each animal which corresponds to the excretion fraction were loaded in a polyacrylamide gel. After separation by electrophoresis, these proteins were transferred to a PVDF membrane (Inmobilon-P #IPVH00010, Madrid, Spain), and they were hybridized with antibodies against KIM-1 (R&D Systems) and NGAL (MBL).
An experimental model of iodinated contrast nephropathy was used, consisting of the intravenous administration of the iodinated contrast Gastrografin (Bayer C. N. 909622 EXO) to rats predisposed to suffering acute kidney failure.
The experiment was performed on 32 male Wistar rats of around 220 grams in weight. The environmental conditions of the animals were kept constant: temperature of around 20° C., humidity of approximately 60% and daily light period (photoperiod) of 12 hours.
Six experimental groups were considered in the design study:
Control group (C): rats administered saline solution (n=5).
Cardiotrophin group (CT-1): rats administered cardiotrophin i.v. (100 μg/Kg/day) the day before the administration of the contrast and in the four subsequent days (n=5).
Gastrografin group (Gg): rats administered a single dose of iodinated agent i.v. (10 mL/Kg; […]) (n=5).
The animals were housed in metabolic cages in order to collect the urine free of faeces. Likewise, a blood sample was obtained every day (0.150 ml) from the tail in heparized capillaries.
At the end of the experiments (four days after administration of the iodinated contrast) the rats were anaesthetized and, later, they were perfused with heparinized saline solution. The kidneys were obtained from these animals and part of the samples was introduced in formol to perform histological studies whilst another part was ultrafrozen for the tissue studies.
The studies performed were the following:
Plasma creatinine, Plasma urea, proteinuria, microalbuminuria
Creatinine clearance in metabolic cages

For data set [2], the system named is acute kidney injury produced by gentamicin. As to the kind of experiment: Acute kidney injury produced by gentamicin.

Consider gentamicin [reference compound], for which the proteinuria entry is given as “did not alter” in data set [1] (agents without CT-1 protection or alone, vs control) and “high proteinuria” in data set [2] (agent alone). In addition, the “KIM-1 in the urine (Western blot)” value in data set [1] (in comparison with the controls) was “produced no effect”. Also, the “general condition (appearance, mobility)” value in data set [1] (throughout the experiment) is “healthy appearance and normal mobility”; in data set [2] (agent alone), “more deteriorated appearance, reduced mobility and slight colouring of the hair”. For the same substance, the results for the survival result in data set [1] (until the end of the experiment (four days after contrast)) and in data set [2] (until the end of the experiment) were “all animals survived until the end of the experiment” and “one animal from each group died”, respectively. Also, the “PAI-1 in the urine (Western blot)” value in data set [1] (vs control group) is on record as “not different from the control group animals”. Moreover, the urinary flow result in data set [2] (administered separately, vs control group (C)) is “Neither G nor CT-1, administered separately, modified the urinary flow”. Besides, the “reactive bands to the anti KIM-1 antibody in the urine” value in data set [2] (agent alone, vs controls) is listed as “clear increase”. Also, in data set [2] (agent alone, vs controls), the “renal levels of KIM-1 (Western blot)” value is listed as “clear increase”. Moreover, the “liver weight (with respect to the body weight)” value in data set [2] (at the time of sacrifice) is reported as “tendency for relative weight reduction”. In addition, in data set [2] (end of treatments), the “renal and urinary NGAL (Western blot)” value is on record as “induce an increase”. In data set [2] (gentamicin alone, end of treatments), the “renal cortex histology (hematoxylin-eosin)” value is “massive tubular necrosis”. Besides, the body weight result in data set [2] (vs control and CT-1 groups) is reported as “slight decrease”.

The record behind these values is patent publication US20140170125A1, “USE OF CARDIOTROPHIN-1 FOR THE TREATMENT OF KIDNEY DISEASES” (DIGNA Biotech, S.L., priority 2011, published 2014).
